Experimental data as given in patent US12668845B2, “Methods for predicting drug responsiveness in cancer patients” (Allarity Therapeutics Europe ApS, priority 2018, dated 2026).

Key:
MDA-MB-468 = assay: Growth inhibition of cell lines treated with 2X-121; assay type: cell-based; conditions: Homo sapiens; cell line MDA-MB-468, origin Breast; read-out: Measured growth inhibition IC50
tumor = assay: Phase I trial of 2X-121 (NCT01618136), clinical response; assay type: in vivo, human; set-up: key to RECIST: SD = stable disease; PD = progressive disease; PR = partial response
Experimental: A Phase I trial of 2X-121 was conducted in the UK (clinicaltrial.gov number NCT01618136). 2X-121 was administered as daily oral doses of 50-800 mg. Of 41 patients enrolled in the Phase I trial, 35 had response assessment. Of these, 2 had partial response (PR) (5% overall response rate (ORR)) and 13 had stable disease (SD). Biopsies and BRCA analysis were voluntary and available from 16, and 7 patients, respectively.
Of the 16 patients with biopsies, 13 passed our quality control (QC) in the lab and were assayed on the Affymetrix HG-U133Plus2 array.
A statistical analysis plan was completed before initiation of blinded prediction of 2X-121 sensitivity on the 13 samples. In this analysis, the difference of the mean expression of genes in Table 3 were subtracted from the mean expression of genes in Table 2 for each patient to determine a difference score. This score was compared to a reference population of 819 breast cancer patients to convert the difference score to a percentile score. The percentile score is shown in Table 4 as “DRP score” and used for FIGS. 3 and 4, and Tables 5 and 6.

HepG2 = assay: Growth inhibition of cell lines treated with 2X-121; assay type: cell-based; conditions: Homo sapiens; cell line HepG2, origin HCC; read-out: Measured growth inhibition IC50
[1] = system: P-glycoprotein expressing cells; conditions: cited from earlier work
MDA-MB-453 = assay: Growth inhibition of cell lines treated with 2X-121; assay type: cell-based; conditions: Homo sapiens; cell line MDA-MB-453, origin Breast; read-out: Measured growth inhibition IC50
U266 = assay: as above; assay type: cell-based; conditions: Homo sapiens, U-266; cell line U266, origin Myeloma; read-out: Measured growth inhibition IC50
ECC-1 = assay: as above; assay type: cell-based; conditions: Homo sapiens; cell line ECC-1, origin Endometrial; read-out: Measured growth inhibition IC50
HEC-1B = assay: as above; assay type: cell-based; conditions: Homo sapiens; cell line HEC-1B, origin Endometrial; read-out: Measured growth inhibition IC50
NCI-H146 = assay: as above; assay type: cell-based; conditions: Homo sapiens; cell line NCI-H146, origin SCLC; read-out: Measured growth inhibition IC50
M14 = assay: as above; assay type: cell-based; conditions: Homo sapiens; cell line M14, origin Melanoma; read-out: Measured growth inhibition IC50
JVM-13 = assay: as above; assay type: cell-based; conditions: JVM13; cell line JVM-13, origin MCL; read-out: Measured growth inhibition IC50
KG-1 = assay: as above; assay type: cell-based; conditions: Homo sapiens; cell line KG-1, origin AML; read-out: Measured growth inhibition IC50
NCI-H82 = assay: as above; assay type: cell-based; conditions: Homo sapiens; cell line NCI-H82, origin SCLC; read-out: Measured growth inhibition IC50
[2] = in vivo; cited from earlier work
BT-20 = assay: Growth inhibition of cell lines treated with 2X-121; assay type: cell-based; conditions: Homo sapiens; cell line BT-20, origin Breast; read-out: Measured growth inhibition IC50
KLE = assay: as above; assay type: cell-based; conditions: Homo sapiens; cell line KLE, origin Endometrial; read-out: Measured growth inhibition IC50
MDA-MB-436 = assay: as above; assay type: cell-based; conditions: Homo sapiens; cell line MDA-MB-436, origin Breast; read-out: Measured growth inhibition IC50
HEC-265 = assay: as above; assay type: cell-based; conditions: cell line HEC-265, origin Endometrial; read-out: Measured growth inhibition IC50
[3] = Patient 1, tumor pancreas, 2X-121 dose 600 mg
[4] = Patient 2, tumor mesothelioma, 2X-121 dose 200 mg
[5] = Patient 3, tumor pancreas, 2X-121 dose 600 mg
[6] = Patient 4, tumor intestine, 2X-121 dose 600 mg
[7] = Patient 5, tumor ovary, 2X-121 dose 600 mg
[8] = Patient 6, tumor lung, 2X-121 dose 50 mg
[9] = Patient 7, tumor pancreas, 2X-121 dose 50 mg
[10] = Patient 8, tumor adrenal, 2X-121 dose 400 mg
[11] = Patient 9, tumor kidney, 2X-121 dose 400 mg
[12] = Patient 10, tumor ovary, 2X-121 dose 800 mg
[13] = Patient 11, tumor ovary, 2X-121 dose 800 mg
[14] = Patient 12, tumor pancreas, 2X-121 dose 600 mg
[15] = Patient 13, tumor gallbladder, 2X-121 dose 600 mg
[16] = predicted resistant group (below DRP cutoff 50, N=7)

O=c1[nH]nc2c3c(cccc13)N=C(CN1Cc3ccccc3C1)N2 [2X-121, 8-(isoindolin-2-ylmethyl)-2,9-dihydro-3H-pyridazino[3,4,5-de]quinazolin-3-one]
IC50 (MDA-MB-468): 2.5 µM | response rate (tumor; BRCA mutated population, 1 of 6 responded): 16% | TimeOS (tumor; Patient 1, tumor pancreas, 600 mg, StatusOS Death): 208 days | TimePFS (tumor; Patient 1, tumor pancreas, 600 mg, StatusPFS censored): 42 days | Diameter (%), change from baseline (tumor; [3]): −10% | RECIST (tumor; [3]): SD | TimeOS (tumor; Patient 2, tumor mesothelioma, 200 mg, StatusOS Death): 167 days | TimePFS (tumor; Patient 2, tumor mesothelioma, 200 mg, StatusPFS Progression): 50 days | Diameter (%), change from baseline (tumor; [4]): 1% | RECIST (tumor; [4]): PD | TimeOS (tumor; Patient 3, tumor pancreas, 600 mg, StatusOS censored): 406 days | TimePFS (tumor; Patient 3, tumor pancreas, 600 mg, StatusPFS censored): 321 days | Diameter (%), change from baseline (tumor; [5]): −22% | RECIST (tumor; [5]): SD | TimeOS (tumor; Patient 4, tumor intestine, 600 mg, StatusOS Death): 120 days | TimePFS (tumor; Patient 4, tumor intestine, 600 mg, StatusPFS Progression): 59 days | Diameter (%), change from baseline (tumor; [6]): 23% | RECIST (tumor; [6]): PD | TimeOS (tumor; Patient 5, tumor ovary, 600 mg, StatusOS censored): 379 days | TimePFS (tumor; Patient 5, tumor ovary, 600 mg, StatusPFS Progression): 331 days | Diameter (%), change from baseline (tumor; [7]): −83% | RECIST (tumor; [7]): PR | TimeOS (tumor; Patient 6, tumor lung, 50 mg, StatusOS censored): 466 days | TimePFS (tumor; Patient 6, tumor lung, 50 mg, StatusPFS Progression): 155 days | Diameter (%), change from baseline (tumor; [8]): 5% | RECIST (tumor; [8]): SD | TimeOS (tumor; Patient 7, tumor pancreas, 50 mg, StatusOS Death): 335 days | TimePFS (tumor; Patient 7, tumor pancreas, 50 mg, StatusPFS censored): 262 days | Diameter (%), change from baseline (tumor; [9]): 3% | RECIST (tumor; [9]): SD | TimeOS (tumor; Patient 8, tumor adrenal, 400 mg, StatusOS Death): 190 days | TimePFS (tumor; Patient 8, tumor adrenal, 400 mg, StatusPFS Progression): 50 days | Diameter (%), change from baseline (tumor; [10]): 40% | RECIST (tumor; [10]): PD | TimeOS (tumor; Patient 9, tumor kidney, 400 mg, StatusOS censored): 865 days | TimePFS (tumor; Patient 9, tumor kidney, 400 mg, StatusPFS Progression): 276 days | Diameter (%), change from baseline (tumor; [11]): −2% | RECIST (tumor; [11]): SD | TimeOS (tumor; Patient 10, tumor ovary, 800 mg, StatusOS Death): 301 days | TimePFS (tumor; Patient 10, tumor ovary, 800 mg, StatusPFS Progression): 50 days | Diameter (%), change from baseline (tumor; [12]): 26% | RECIST (tumor; [12]): PD | TimeOS (tumor; Patient 11, tumor ovary, 800 mg, StatusOS censored): 715 days | TimePFS (tumor; Patient 11, tumor ovary, 800 mg, StatusPFS Progression): 315 days | Diameter (%), change from baseline (tumor; [13]): −46% | RECIST (tumor; [13]): PR | TimeOS (tumor; Patient 12, tumor pancreas, 600 mg, StatusOS Death): 257 days | TimePFS (tumor; Patient 12, tumor pancreas, 600 mg, StatusPFS Progression): 189 days | Diameter (%), change from baseline (tumor; [14]): −7% | RECIST (tumor; [14]): SD | TimeOS (tumor; Patient 13, tumor gallbladder, 600 mg, StatusOS Death): 121 days | TimePFS (tumor; Patient 13, tumor gallbladder, 600 mg, StatusPFS Progression): 41 days | Diameter (%), change from baseline (tumor; [15]): 3% | RECIST (tumor; [15]): PD | patients with partial response (PR) (tumor; Phase I, daily oral 50-800 mg, of 35 patients with response assessment): 2 | overall response rate (ORR) (tumor; Phase I, daily oral doses of 50-800 mg, 41 enrolled, 35 with response assessment): 5% | hazard ratio, progression-free survival (PFS) (tumor; above DRP cutoff of 50 (N=6) vs below (N=7), P=0.2 one-sided): 0.59 | hazard ratio, overall survival (OS) (tumor; above dose-adjusted DRP cutoff of 50 (N=6) vs below (N=7), P=0.04 one sided): 0.26 | response rate (tumor; all 13 patients analyzed with DRP (cutoff 0, 100% of population), 2/13): 15% | response rate (tumor; patients above dose-adjusted DRP cutoff of 50, 2/6): 33% | median PFS (tumor; [16]): 155 days | median survival (tumor; [16]): 208 days | median PFS (tumor; predicted sensitive group (above DRP cutoff 50, N=6)): 296 days | IC50 (HepG2): 3.8 µM | activity in P-glycoprotein expressing cells [1]: active | IC50 (MDA-MB-453): 6.2 µM | IC50 (U266): 6.7 µM | IC50 (ECC-1): 0.68 µM | IC50 (HEC-1B): 7.27 µM | IC50 (NCI-H146): 0.93 µM | IC50 (M14): 6.7 µM | IC50 (JVM-13): 7.3 µM | IC50 (KG-1): 2 µM | IC50 (NCI-H82): 0.47 µM | brain penetration [2]: brain penetrable | IC50 (BT-20): 7.9 µM | IC50 (KLE): 2.59 µM | IC50 (MDA-MB-436): 0.19 µM | IC50 (HEC-265): 2.4 µM
